Reference: patent US8729032B2, “Self-assembling peptide and peptide gel with high strength” (Menicon Co., Ltd., priority 2009, dated 2014)

Assays:
[1] = test system: mouse NIH3T3 cells; assay: Cell culture in autoclaved peptide gel, Cell Counting Kit 8, cell growth rate; type: cell-based; settings: Day 0 (Hour 2), Day 1, Day 3, Day 5; gel from 0.5 w/v % solution autoclaved at 121° C. for 20 minutes; FIG. 9
Description: The modified peptide 1 was dissolved in a sodium carbonate solution to prepare a 0.5 w/v % peptide aqueous solution (final concentration of sodium carbonate: 2.75 mM). The peptide aqueous solution was subjected to sterilization treatment at 121° C. for 20 minutes using an autoclave apparatus (product number “MLS 3020” manufactured by SANYO Electric Co., Ltd.) to afford a peptide gel. The gel and a cell suspension obtained by suspending mouse NIH3T3 cells in a DMEM medium were uniformly mixed with each other at a volume ratio of 2:1 (gel:cell suspension) by pipetting. […] Cell growth rates were measured using a trade name “Cell Counting Kit 8” (manufactured by DOJINDO LABORATORIES) on Day 0 (Hour 2), Day 1, Day 3, and Day 5 after the start of culture.
A specific procedure for the measurement of the cell growth rates described above is as described below. […] After the incubation, 100 μL of the medium permeating the gel in the Cell Culture Insert were transferred to a well of a 96-well plate, and the absorbance of the medium at 450 nm was measured using a plate reader. Cell growth rates in the respective culture days were determined with the absorbance of a sample on Day 0 after the start of culture defined as 100.

[2] = test system: mouse myoblasts (L6); assay: Cell culture in peptide gel, DNA quantification (CyQUANT), cell growth rate; type: cell-based; settings: rate immediately after start = 100%, peptide 0.4 w/v %, average of n=3
From the text: A cell suspension including mouse myoblasts (L6) at a cell concentration of 2.0×10^6 cells/ml and a peptide aqueous solution including the modified peptide 1 at 1.0 w/v % were mixed with each other at a volume ratio of 3:2 (cell suspension:peptide aqueous solution). The resultant mixture (cell concentration: 1.2×10^6 cells/ml, peptide concentration: 0.4 w/v %) was charged into a Cell Culture Insert (product number “353096” manufactured by BD Falcon) and left to stand still at room temperature for approximately 1 minute to form a peptide gel. The gel in the Cell Culture Insert was directly set in wells of a 24-well plate for tissue culture (product number “3820-024” manufactured by AGC TECHNO GLASS CO., LTD.) with 1 mL of a DMEM medium containing 10% calf serum. Next, cell culture was carried out in an incubator at 37° C. in the presence of 5% CO2. Medium exchange was carried out only once on Day 2 after the start of culture. The gel was collected on Days 1, 2, and 4 after the start of culture, and DNA quantification was carried out using a trade name “CyQUANT (registered trademark) Cell Proliferation Assay Kit*for cells in culture**1000 assays*” (product number “C7026” manufactured by Invitrogen), to thereby calculate cell growth rates. The cell growth rates on Days 1, 2, and 4 after the start of culture were 150%, 180%, and 310%, respectively, when the cell growth rate immediately after the start of culture was defined as 100%, that is, the number of cells increased in accordance with a lapse of days (an average of n=3 was used for the calculation results).

| Substance | cell growth rates [1] | cell growth rate ([2]; Day 1 after start of culture) [%] | cell growth rate ([2]; Day 2 after start of culture) [%] | cell growth rate ([2]; Day 4 after start of culture) [%] |
| --- | --- | --- | --- | --- |
| [CH3CO]-RLDLRLALRLDLR-[NH2] (Ac-RLDLRLALRLDLR-NH2) [modified peptide 1] | increased in accordance with a lapse of culture days | 150 | 180 | 310 |
| [CH3CO]-RLDLRLLLRLDLR-[NH2] (Ac-RLDLRLLLRLDLR-NH2) [modified peptide 2] |  | 140 | 160 | 250 |
